Here are results for eight compounds from PMC9863027, “Bioactive Alpha-Pyrone and Phenolic Glucosides from the Marine-Derived Metarhizium sp. P2100” (Journal of Fungi, 2022).

Where two headings read alike, the source gives them in different places. Some results are limits rather than exact numbers.

The test system of data set [1] is NO production in mouse macrophage. Nature of the data set: NO production inhibitory activity in LPS-stimulated mouse macrophage (Griess reaction). The data set is classed as cell-based. Conditions: concentration of 50 μM; LPS 1 μg/mL; mean ± SD. Here is the method: The bioassay for NO production inhibitory activity was conducted as described by Xia. The mouse macrophage was seeded in 96-well plates. In each well, lipopolysaccharide (LPS) (1 μg/mL) was added after treating it with or without the tested compound for 24 h. The NO production in the supernatant was detected by the Griess reaction. The absorbance at 540 nm was measured with a microplate reader. The NO concentration and the inhibitory rate were calculated through a calibration curve. Dexamethasone was used as the positive control. Experiments were operated in triplicate, and the data were described as the mean ± SD of three independent experiments.
(In general: Griess reagent forms a coloured azo dye with nitrite.)

Data set [2] addresses T1, α-amylase (Sus scrofa, UniProt P00690).
T1 sequence (P00690 16-511): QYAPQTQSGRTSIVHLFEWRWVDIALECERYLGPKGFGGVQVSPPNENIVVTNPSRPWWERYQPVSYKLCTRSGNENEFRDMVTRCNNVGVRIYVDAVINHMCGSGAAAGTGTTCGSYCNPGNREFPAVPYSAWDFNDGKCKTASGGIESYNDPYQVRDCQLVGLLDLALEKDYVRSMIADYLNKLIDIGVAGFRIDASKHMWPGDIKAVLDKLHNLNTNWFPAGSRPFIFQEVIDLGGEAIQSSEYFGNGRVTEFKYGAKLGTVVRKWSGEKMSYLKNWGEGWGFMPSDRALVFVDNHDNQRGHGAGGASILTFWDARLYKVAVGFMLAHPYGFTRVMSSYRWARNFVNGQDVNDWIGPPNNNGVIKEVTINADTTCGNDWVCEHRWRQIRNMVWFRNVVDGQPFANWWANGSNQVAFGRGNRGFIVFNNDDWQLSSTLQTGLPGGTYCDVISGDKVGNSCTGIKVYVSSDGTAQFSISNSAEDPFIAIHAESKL
Nature of the data set: α-amylase inhibition activity (starch substrate, dinitrosalicylic acid reagent). Conditions: read-out: IC50 against α-amylase. The data set is classed as biochemical. How it is done:
The α-amylase inhibition activity was measured by Milella with minor modifications. Tested compounds and 1-Deoxynojirimycin (1-DNJ) were dissolved in methanol at different concentrations. A substrate solution was prepared with 0.25% starch dissolved in 20 mM phosphate buffer solution (PBS). The enzyme (10 units/mL of α-amylase in PBS, 25 µL) and sample solutions (25 µL) were mixed in Eppendorf vials, and the mixtures were incubated at 37 °C for 10 min. Then, 25 µL of substrate solution was added to each tube, and the reaction mixture was incubated at 37 °C for 10 min. The reaction was terminated by adding 150 µL of dinitrosalicylic acid color reagent. Subsequently, the test tubes were heated for 5 min at 100 °C. After cooling at room temperature, the absorbance was measured at 540 nm. The absorbance of the blank (enzyme solution was added during the boiling) and negative controls (methanol) were recorded. Analyses were performed in triplicate, and the final sample absorbance was obtained by subtracting its corresponding blank reading. The inhibitory activity (%) was calculated as follows: % inhibition=(1−A540 sample/A540 negative control) × 100%
The half-maximal inhibitory concentration (IC50) values were calculated according to the inhibition curve and the data were shown in the layout of mean ± SEM by GraphPad Prism 6.0 (GraphPad Software, Inc., La Jolla, CA, USA).

For data set [3], the system named is HEp-2 cells. Also on record: method as in earlier work. Conditions: read-out: IC50 cytotoxicity against HEp-2; cited from earlier work.
Data set [4] concerns HepG2 cells. Also on record: method as in earlier work. To be noted: read-out: IC50 cytotoxicity against HepG2; cited from earlier work.
Data set [5] concerns the target protein tyrosine phosphatase 1B (PTP1B). To be noted: read-out: IC50 against PTP1B, cited from earlier work.

In general, IC50 refers to the concentration at which inhibition is half-maximal. For the compound “4-(4′-methoxy-β-D-glucosyl)-6-pentyl-2-pyrone [Compound 1]”, the “NO production inhibition ratio (%)” value in data set [1] was determined as 53.85 ± 2.32%. The IC50 in data set [2] is 128 µM.

As for `COc1c(O[C@@H]2O[C@H](CO[C@@H]3OC[C@H](O)[C@H](O)[C@H]3O)[C@@H](O)[C@H](O)[C@H]2O)cc(OC)c2c(=O)c3ccccc3oc12` [3-O-(6-O-α-L-arabinopyranosyl)-β-D-gluco-pyranosyl-1,4-dimethoxyxanthone], the IC50 in data set [3] was 9 µM; in data set [4], 16 µM.

Take `CCCCCCCCCCCCCCCc1cc(O[C@@H]2O[C@H](CO)[C@@H](O)[C@H](O)[C@H]2O)cc(O)c1C(=O)Oc1cc(C)c(C(=O)O)c(O)c1` [Aquastatin A]: the IC50 in data set [5] (competitive manner) is 0.19 µM.

As for `CCCCC(OC1OC(CO)C(OC)C(O)C1O)c1cc(OC)cc(=O)o1` [Compound 2, 7(R)-(4′-methoxy-β-D-glucosyl)-4-methoxy-6-pentyl-2-pyrone], the “NO production inhibition ratio (%)” value in data set [1] is given as 62.30 ± 1.46%.

On to `CCCCC(OC1OC(CO)C(OC)C(O)C1O)c1cc(OC)cc(=O)o1` [Compound 3, 7(S)-(4′-methoxy-β-D-glucosyl)-4-methoxy-6-pentyl-2-pyrone], for which the “NO production inhibition ratio (%)” value in data set [1] came to 68.44 ± 3.75%.

As to `COc1cc(C(C)=O)ccc1O[C@@H]1O[C@H](CO)[C@@H](OC)[C@H](O)[C@H]1O` [Compound 4, Lecaniside D], the “NO production inhibition ratio (%)” value in data set [1] came out at 68.10 ± 2.07%.

In the case of `C[C@@H]1C[C@H]2[C@@H]3CCC4=CC(=O)C=C[C@]4(C)[C@@]3(F)[C@@H](O)C[C@]2(C)[C@@]1(O)C(=O)CO` [Dexamethasone, reference compound], the “NO production inhibition ratio (%)” value in data set [1] is 63.88 ± 2.07%.

For the compound Lecaniside C, the IC50 in data set [5] was over 50 µM.
